Assay results: ChEMBL document CHEMBL3885861, “Open TG-GATES”

Organism: Rattus norvegicus
Assay: Open TG-GATES - Regimen: Single
Assay type: toxicity, organism-based, Sprague-Dawley
Parameters: regimen Single, gender Male, age 6 weeks
Settings: in vivo, po, 2000 mg/kg, route gavage, dose level High; for APTT / Bas / Eos / Fbg / Hb / Ht / Lym / MCH / MCHC / MCV / Mono / Neu / PT / Plat / RBC / Ret / WBC: tissue Blood; for KIDNEY_L / KIDNEY_R / KIDNEY_TOTAL: tissue Kidney; for LIVER: tissue Liver; for A/G / ALP / ALT / AST / BUN / CRE / Ca / Cl / DBIL / GLC / IP / K / LDH / Na / PL / RALB / TBIL / TC / TG / TP / gamma-GTP: tissue Plasma

With `Clc1c(Cl)c(Cl)c(Cl)c(Cl)c1Cl` [PERCHLOROBENZENE] the TERMINAL_BW (3 h) was 219.3 g, the APTT (3 h) was 19.9 s and the Bas (3 h) was 0.4%. It also gave an Eos (3 h) of 1%, a Fbg (3 h) of 223.4 mg/dL and a Hb (3 h) of 13.8 g/dL. The Ht (3 h) was 38.5%, the Lym (3 h) was 76.4% and the MCH (3 h) was 22.1 pg. It also gave an MCHC (3 h) of 35.7%, an MCV (3 h) of 62 fL and a Mono (3 h) of 2.2%. It also gave a Neu (3 h) of 19.2%, a PT (3 h) of 12 s and a Plat (3 h) of 128.8 x10_4/uL. For the same molecule, the RBC (3 h) was 621.4 x10_4/ul, the Ret (3 h) was 7.4% and the WBC (3 h) was 104.4 x10_2/uL. The KIDNEY_L (3 h) was 1 g, the KIDNEY_R (3 h) was 1 g and the KIDNEY_TOTAL (3 h) was 2 g. It also gave an LIVER (3 h) of 10.1 g, an A/G (3 h) of 1.6 and an ALP (3 h) of 1055.8 IU/L. It also gave an ALT (3 h) of 37.2 IU/L, an AST (3 h) of 76.8 IU/L and a BUN (3 h) of 10.8 mg/dL. The CRE (3 h) was 0.4 mg/dL, the Ca (3 h) was 11 mg/dL and the Cl (3 h) was 103 meq/L. The DBIL (3 h) was 0.062 mg/dL, the GLC (3 h) was 192.6 mg/dL and the IP (3 h) was 9.3 mg/dL. It also gave a K (3 h) of 3.8 meq/L, an LDH (3 h) of 231.2 IU/L and a Na (3 h) of 141.4 meq/L. It also gave a PL (3 h) of 151 mg/dL, an RALB (3 h) of 3.4 g/dL and a TBIL (3 h) of 0.1 mg/dL. For the same molecule, the TC (3 h) was 74.6 mg/dL, the TG (3 h) was 132 mg/dL and the TP (3 h) was 5.6 g/dL. For the same molecule, the gamma-GTP (3 h) was 1.2 IU/L, the TERMINAL_BW (6 h) was 215.7 g and the APTT (6 h) was 19.3 s. For the same molecule, the Bas (6 h) was 0.2%, the Eos (6 h) was 1% and the Fbg (6 h) was 239.6 mg/dL. For the same molecule, the Hb (6 h) was 13.6 g/dL, the Ht (6 h) was 39.1% and the Lym (6 h) was 74%. It also gave an MCH (6 h) of 21.2 pg, an MCHC (6 h) of 34.6% and an MCV (6 h) of 61 fL. For the same molecule, the Mono (6 h) was 2.6%, the Neu (6 h) was 20.8% and the PT (6 h) was 12 s. It also gave a Plat (6 h) of 134.1 x10_4/uL, an RBC (6 h) of 641.6 x10_4/ul and a Ret (6 h) of 7.1%. For the same molecule, the WBC (6 h) was 105.2 x10_2/uL, the KIDNEY_L (6 h) was 0.9 g and the KIDNEY_R (6 h) was 0.9 g. The KIDNEY_TOTAL (6 h) was 1.8 g, the LIVER (6 h) was 9 g and the A/G (6 h) was 1.8. The ALP (6 h) was 1089.2 IU/L, the ALT (6 h) was 34 IU/L and the AST (6 h) was 77.2 IU/L. It also gave a BUN (6 h) of 9.4 mg/dL, a CRE (6 h) of 0.4 mg/dL and a Ca (6 h) of 10.6 mg/dL. It also gave a Cl (6 h) of 102.8 meq/L, a DBIL (6 h) of 0.072 mg/dL and a GLC (6 h) of 196.2 mg/dL. For the same molecule, the IP (6 h) was 9.3 mg/dL, the K (6 h) was 3.9 meq/L and the LDH (6 h) was 219 IU/L. The Na (6 h) was 141.2 meq/L, the PL (6 h) was 132.6 mg/dL and the RALB (6 h) was 3.5 g/dL. For the same molecule, the TBIL (6 h) was 0.1 mg/dL, the TC (6 h) was 73.8 mg/dL and the TG (6 h) was 55 mg/dL. It also gave a TP (6 h) of 5.5 g/dL, a gamma-GTP (6 h) of 1 IU/L and a TERMINAL_BW (9 h) of 214.9 g. It also gave an APTT (9 h) of 17.8 s, a Bas (9 h) of 0% and an Eos (9 h) of 1%. The Fbg (9 h) was 224.6 mg/dL, the Hb (9 h) was 13.5 g/dL and the Ht (9 h) was 38.5%. For the same molecule, the Lym (9 h) was 74.2%, the MCH (9 h) was 21.5 pg and the MCHC (9 h) was 35.1%. The MCV (9 h) was 61.4 fL, the Mono (9 h) was 2.2% and the Neu (9 h) was 21%. For the same molecule, the PT (9 h) was 12 s, the Plat (9 h) was 126.2 x10_4/uL and the RBC (9 h) was 626.2 x10_4/ul. The Ret (9 h) was 7.3%, the WBC (9 h) was 92.9 x10_2/uL and the KIDNEY_L (9 h) was 1 g. For the same molecule, the KIDNEY_R (9 h) was 1 g, the KIDNEY_TOTAL (9 h) was 1.9 g and the LIVER (9 h) was 9 g. The A/G (9 h) was 1.7, the ALP (9 h) was 944.6 IU/L and the ALT (9 h) was 26.4 IU/L. It also gave an AST (9 h) of 68.4 IU/L, a BUN (9 h) of 10.6 mg/dL and a CRE (9 h) of 0.4 mg/dL. For the same molecule, the Ca (9 h) was 10.6 mg/dL, the Cl (9 h) was 103.4 meq/L and the DBIL (9 h) was 0.064 mg/dL. The GLC (9 h) was 207.2 mg/dL, the IP (9 h) was 10.7 mg/dL and the K (9 h) was 4.1 meq/L. For the same molecule, the LDH (9 h) was 216.6 IU/L, the Na (9 h) was 141.2 meq/L and the PL (9 h) was 130.2 mg/dL. It also gave an RALB (9 h) of 3.4 g/dL, a TBIL (9 h) of 0.1 mg/dL and a TC (9 h) of 68 mg/dL. For the same molecule, the TG (9 h) was 44 mg/dL, the TP (9 h) was 5.4 g/dL and the gamma-GTP (9 h) was 0.8 IU/L. For the same molecule, the TERMINAL_BW (24 h) was 231.5 g, the APTT (24 h) was 18.5 s and the Bas (24 h) was 0.2%. It also gave an Eos (24 h) of 1%, a Fbg (24 h) of 233.4 mg/dL and a Hb (24 h) of 13.7 g/dL. It also gave a Ht (24 h) of 39.3%, a Lym (24 h) of 76.4% and an MCH (24 h) of 21 pg. It also gave an MCHC (24 h) of 34.8%, an MCV (24 h) of 60.4 fL and a Mono (24 h) of 2.6%. It also gave a Neu (24 h) of 19%, a PT (24 h) of 11.6 s and a Plat (24 h) of 126.2 x10_4/uL. For the same molecule, the RBC (24 h) was 651.6 x10_4/ul, the Ret (24 h) was 6% and the WBC (24 h) was 100 x10_2/uL. It also gave a KIDNEY_L (24 h) of 1 g, a KIDNEY_R (24 h) of 0.9 g and a KIDNEY_TOTAL (24 h) of 1.9 g. For the same molecule, the LIVER (24 h) was 11.1 g, the A/G (24 h) was 1.5 and the ALP (24 h) was 1190.4 IU/L. The ALT (24 h) was 36.2 IU/L, the AST (24 h) was 71.4 IU/L and the BUN (24 h) was 14.8 mg/dL. The CRE (24 h) was 0.4 mg/dL, the Ca (24 h) was 10.7 mg/dL and the Cl (24 h) was 103.4 meq/L. The DBIL (24 h) was 0.052 mg/dL, the GLC (24 h) was 195.6 mg/dL and the IP (24 h) was 7.4 mg/dL. The K (24 h) was 3.9 meq/L, the LDH (24 h) was 229.6 IU/L and the Na (24 h) was 141.2 meq/L. The PL (24 h) was 139.6 mg/dL, the RALB (24 h) was 3.3 g/dL and the TBIL (24 h) was 0.1 mg/dL. The TC (24 h) was 74 mg/dL, the TG (24 h) was 108.8 mg/dL and the TP (24 h) was 5.5 g/dL. It also gave a gamma-GTP (24 h) of 1.2 IU/L.
